Measurements taken from patent publication US10266548B2, “Substituted benzylindazoles for use as Bub1 kinase inhibitors in the treatment of hyperproliferative diseases” (Bayer Intellectual Property GmbH, priority 2011, dated 2019).
Structures can show the parent of a compound that is named as a salt. Where two headings read alike, the source gives them in different places.

Legend:
[1] = test system: NCI-H460 cells; assay: Proliferation assay (H460 cell line); assay type: cell-based; conditions: read-out: Biological Assay 2: Proliferation assay (H460 cell line) median IC50
Experimental: (§1) Cultivated tumor cells (cells were ordered from ATCC, except HeLa-MaTu and HeLa-MaTu-ADR, which were ordered from EPO-GmbH, Berlin) were plated at a density of 1000 to 5000 cells/well, depending on the growth rate of the respective cell line, in a 96-well multititer plate in 200 μL of their respective growth medium supplemented 10% fetal calf serum. After 24 hours, the cells of one plate (zero-point plate) were stained with crystal violet (see below), while the medium of the other plates was replaced by fresh culture medium (200 μl), to which the test substances were added in various concentrations (0 μM, as well as in the range of 0.001-10 μM; the final concentration of the solvent dimethyl sulfoxide was 0.5%). The cells were incubated for 4 days in the presence of test substances. Cell proliferation was determined by staining the cells with crystal violet: the cells were fixed by adding 20 μl/measuring point of an 11% glutaric aldehyde solution for 15 minutes at room temperature. After three washing cycles of the fixed cells with water, the plates were dried at room temperature. The cells were stained by adding 100 μl/measuring point of a 0.1% crystal violet solution (pH 3.0). After three washing cycles of the stained cells with water, the plates were dried at room temperature. The dye was dissolved by adding 100 μl/measuring point of a 10% acetic acid solution. […] The change of cell number, in percent, was calculated by normalization of the measured values to the aborbtion values of the zero-point plate (=0%) and the absorbtion of the untreated (0 μm) cells (=100%). The IC50 values were determined by means of a 4 parameter fit using the company's own software.

[2] = test system: HeLa-MaTu-ADR cells; assay: Proliferation assay (HeLa-MaTu-ADR cell line); assay type: cell-based; conditions: read-out: Biological Assay 2: Proliferation assay (HeLa-MaTu-ADR cell line) median IC50
Experimental: as §1

[3] = test system: B16F10 cells; assay: Proliferation assay (B16F10 cell line); assay type: cell-based; conditions: read-out: Biological Assay 2: Proliferation assay (B16F10 cell line) median IC50
Experimental: as §1

[4] = test system: DU145 cells; assay: Proliferation assay (DU145 cell line); assay type: cell-based; conditions: read-out: Biological Assay 2: Proliferation assay (DU145 cell line) median IC50
Experimental: as §1

[5] = test system: Caco2 cells; assay: Proliferation assay (Caco2 cell line); assay type: cell-based; conditions: read-out: Biological Assay 2: Proliferation assay (Caco2 cell line) median IC50
Experimental: as §1

[6] = molecular target: catalytic domain of human Bub1 (amino acids 704-1085) (Homo sapiens (Human), UniProt O43683); assay: Bub1 kinase assay (TR-FRET); assay type: biochemical; conditions: 10 μM ATP, 1 μM peptide substrate; read-out: Biological Assay 1: Bub1 kinase assay median IC50
How it was run: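 Phosphoserine product detected by TR-FRET (Eu-labeled anti-mouse IgG/anti-phosphoserine antibody to streptavidin-XL665) after 1 h at 22 °C. IC50 from 4-parameter logistic fit.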

[7] = test system: HeLa cells; assay: Proliferation assay (HeLa cell line); assay type: cell-based; conditions: Homo sapiens, 96 h, read-out: Biological Assay 2: Proliferation assay (HeLa cell line) median IC50
[8] = Homo sapiens, NCI-H460, 96 h, H460, 4 days, crystal violet
[9] = 96 h, HeLa-MaTu-ADR, 4 days, crystal violet
[10] = Mus musculus, B16-F10, 96 h, B16F10, 4 days, crystal violet
[11] = Homo sapiens, DU-145, 96 h, DU145, 4 days, crystal violet
[12] = Homo sapiens, Caco-2, 96 h, Caco2, 4 days, crystal violet

catalytic domain of human Bub1 (amino acids 704-1085), sequence (O43683 704-1085): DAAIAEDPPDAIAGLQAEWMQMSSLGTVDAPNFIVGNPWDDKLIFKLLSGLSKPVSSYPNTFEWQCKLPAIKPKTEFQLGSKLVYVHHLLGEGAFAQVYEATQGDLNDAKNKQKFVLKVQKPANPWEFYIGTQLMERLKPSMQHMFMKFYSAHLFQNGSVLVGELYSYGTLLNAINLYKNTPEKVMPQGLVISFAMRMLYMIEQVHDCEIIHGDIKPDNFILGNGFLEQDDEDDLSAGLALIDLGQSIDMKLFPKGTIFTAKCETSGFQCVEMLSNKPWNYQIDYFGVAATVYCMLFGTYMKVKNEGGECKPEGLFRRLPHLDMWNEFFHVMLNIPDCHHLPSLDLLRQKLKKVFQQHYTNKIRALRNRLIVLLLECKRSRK

| SMILES | IC50 ([1]; Homo sapiens, NCI-H460, 96 h) | IC50 ([2]; 96 h) | IC50 ([3]; Mus musculus, B16-F10, 96 h) | IC50 ([4]; Homo sapiens, DU-145, 96 h) | IC50 ([5]; Homo sapiens, Caco-2, 96 h) | IC50 [6] | IC50 [7] | IC50 [1, 8] | IC50 [2, 9] | IC50 [3, 10] | IC50 [4, 11] | IC50 [5, 12] | IC50 ([7]; 4 days, crystal violet) | IC50 ([1]; H460, 4 days, crystal violet) | IC50 ([2]; HeLa-MaTu-ADR, 4 days, crystal violet) | IC50 ([3]; B16F10, 4 days, crystal violet) | IC50 ([4]; DU145, 4 days, crystal violet) | IC50 ([5]; Caco2, 4 days, crystal violet) |
| --- | --- | --- | --- | --- | --- | --- | --- | --- | --- | --- | --- | --- | --- | --- | --- | --- | --- | --- |
| CCOc1cc(F)c(Cn2nc(-c3ncc(OCC(O)CN4CCCCC4)c(Nc4ccncc4)n3)c3ccccc32)c(F)c1 (stereo not drawn) [Example 4-9, 1-({2-[1-(4-ethoxy-2,6-difluorobenzyl)-1H-indazol-3-yl]-4-(pyridin-4-ylamino)pyrimidin-5-yl}oxy)-3-(piperidin-1-yl)propan-2-ol] | 1.3 µM | 0.86 µM | 0.53 µM | 1.3 µM | 0.78 µM | 0.0054 µM | 1.7 µM |  |  |  |  |  |  |  |  |  |  |  |
| COc1cnc(-c2nn(Cc3c(F)cc(C#N)cc3F)c3ccccc23)nc1Nc1ccncc1 [Example 2-46-1, 3,5-difluoro-4-({3-[5-methoxy-4-(pyridin-4-ylamino)pyrimidin-2-yl]-1H-indazol-1-yl}methyl)benzonitrile] | 0.88 µM | 0.38 µM | 0.71 µM | 0.85 µM | 0.9 µM | 0.016 µM | 1.4 µM |  |  |  |  |  |  |  |  |  |  |  |
| COC(=O)c1ccc(CN(c2ccncc2)c2nc(-c3nn(Cc4ccc(C(=O)OC)cc4Cl)c4ccccc34)ncc2OC)c(Cl)c1 [Example 2-11-2, methyl 3-chloro-4-{[(2-{1-[2-chloro-4-(methoxycar-bonyl)benzyl]-1H-indazol-3-yl}-5-methoxypyrimidin-4-yl)(pyridin-4-yl)amino]methyl} benzoate] | 2.3 µM | 10 µM | 2.1 µM | 3.6 µM | 8 µM | 0.54 µM | 3.4 µM |  |  |  |  |  |  |  |  |  |  |  |
| OCC1(COc2cnc(-c3nn(Cc4ccccc4F)c4ccccc34)nc2Nc2ccncc2)COC1 [Example 4-2-1, {3[({2-[1-(2-fluorobenzyl)-1H-indazol-3-yl]-4-(pyridin-4-ylamino)pyrimidin-5-yl}oxy)methyl]oxetan-3-yl}methanol] | 6.5 µM | 5.8 µM | 3.7 µM | 10 µM | 9.9 µM | 0.0033 µM | 8.7 µM |  |  |  |  |  |  |  |  |  |  |  |
| CNC(=O)c1ccc(Cl)c(Cn2nc(-c3ncc(OC)c(Nc4ccncc4)n3)c3ccccc32)c1Cl [Example 20-1, 2,4-dichloro-3-({3-[5-methoxy-4-(pyridin-4-ylamino)pyrimidin-2-yl]-1H-indazol-1-yl}methyl)-N-methylbenzamide] |  |  |  |  |  | 0.2 µM |  | 3 µM | 3 µM | 2.4 µM | 3 µM | 3 µM | 0.19 µM |  |  |  |  |  |
| CCOc1cc(F)c(Cn2nc(-c3ncc(OC[C@@H]4CCC(=O)N4)c(Nc4ccncc4)n3)c3ccccc32)c(F)c1 [Example 4-22, (5S)-5-[({2-[1-(4-ethoxy-2,6-difluorobenzyl)-1H-indazol-3-yl]-4-(pyridin-4-ylamino)pyrimidin-5-yl}oxy)methyl] pyrrolidin-2-one] | 2.1 µM | 10 µM | 1.2 µM | 3.6 µM | 9.5 µM | 0.0058 µM | 1.9 µM |  |  |  |  |  |  |  |  |  |  |  |
| COc1cnc(-c2nn(Cc3c(F)ccc(OC)c3F)c3ccccc23)nc1Nc1ccncc1 [Example 2-4-1, 2-[1-(2,6-difluoro-3-methoxybenzyl)-1H-indazol-3-yl]-5-methoxy-N-(pyridin-4-yl)pyrimidin-4-amine] |  |  |  |  |  | 0.0045 µM |  | 4.2 µM | 1.3 µM | 1.2 µM | 3.3 µM | 1.4 µM | 3.5 µM |  |  |  |  |  |
| COc1cnc(-c2nn(Cc3c(Cl)ccc(C(F)(F)F)c3Cl)c3ccccc23)nc1Nc1ccncc1 [Example 2-34-1, 2-{1-(2,6-dichloro-3-(trifluoromethyl)benzyl]-1H-indazol-3-yl}-5-methoxy-N-(pyridin-4-yl)pyrimidin-4-amine] |  |  |  |  |  | 0.038 µM |  | 6.6 µM | 1.2 µM | 1.2 µM | 2.6 µM | 3.4 µM | 1.6 µM |  |  |  |  |  |
| CCOc1cc(F)c(Cn2nc(-c3ncc(OC)c(Nc4ccncc4)n3)c3ccccc32)c(F)c1 [Example 15-1, 2-[1-(4-ethoxy-2,6-difluorobenzyl)-1H-indazol-3-yl]-5-methoxy-N-(pyridin-4-yl)pyrimidin-4-amine hydrochloride (1:1)] |  |  |  |  |  | 0.0052 µM |  |  |  |  |  |  | 1.4 µM | 2.2 µM | 1.2 µM | 0.76 µM | 1.2 µM | 1.2 µM |
| COc1cnc(-c2nn(Cc3cc4c(cc3Br)OCO4)c3ccccc23)nc1Nc1ccncc1 [Example 2-4-3, 2-{1-[(6-bromo-1,3-benzodioxol-5-yl)methyl]-1H-indazol-3-yl}-5-methoxy-N-(pyridin-4-yl)pyrimidin-4-amine] |  |  |  |  |  | 0.014 µM |  | 9 µM | 0.1 µM | 1.5 µM | 2.5 µM | 1.9 µM | 3.9 µM |  |  |  |  |  |
| CN(C)CCOc1cnc(-c2nn(Cc3ccccc3F)c3ccccc23)nc1Nc1ccncc1 [Example 4-4, 5-[2-(dimethyl-amino)ethoxy]-2-[1-(2-fluorobenzyl)-1H-indazol-3-yl] N-(pyridin-4-yl)pyrimidin-4-amine] |  |  |  |  |  | 0.014 µM |  | 3.5 µM | 1.2 µM | 0.5 µM | 4.5 µM | 0.9 µM | 3.4 µM |  |  |  |  |  |
| CCOc1cc(F)c(Cn2nc(-c3ncc(OC[C@H]4CCC(=O)N4)c(Nc4ccncc4)n3)c3ccccc32)c(F)c1 [Example 4-19, (5R)-5-[({2-[1-(4-ethoxy-2,6-difluorobenzyl)-1H-indazol-3-yl]-4-(pyridin-4-ylamino)pyrimidin-5-yl}oxy)methyl] pyrrolidin-2-one] | 2.2 µM | 10 µM | 0.53 µM | 2.3 µM | 10 µM | 0.01 µM | 1.2 µM |  |  |  |  |  |  |  |  |  |  |  |
| COc1cnc(-c2nn(Cc3c(F)cc(Br)cc3F)c3ccccc23)nc1Nc1ccncc1 [Example 2-12-1, 2-[1-(4-bromo-2,6-difluorobenzyl)-1H-indazol-3-yl]-5-methoxy-N-(pyridin-4-yl)pyrimidin-4-amine] | 1.5 µM | 1.3 µM | 1.4 µM | 1.6 µM | 1.4 µM | 0.0073 µM | 1.6 µM |  |  |  |  |  |  |  |  |  |  |  |
| OCC(O)COc1cnc(-c2nn(Cc3ccccc3F)c3ccccc23)nc1Nc1ccncc1 (stereo not drawn) [Example 12-1, 3-({2-[1-(2-fluorobenzyl)-1H-indazol-3-yl]-4-(pyridin-4-ylamino)-pyrimidin-5-yl}oxy)propane-1,2-diol] | 10 µM | 10 µM | 10 µM | 10 µM | 10 µM | 0.011 µM | ≥ 10 µM |  |  |  |  |  |  |  |  |  |  |  |
| COc1ccc(Cn2nc(-c3nccc(Nc4ccncc4)n3)c3ccccc32)cc1 [Example 5-2, 2-[1-(4-methoxybenzyl)-1H-indazol-3-yl]-N-(pyridin-4-yl)pyrimidin-4-amine] | 3 µM | 3 µM | 3 µM | 3 µM | 3 µM | 0.027 µM | 0.71 µM |  |  |  |  |  |  |  |  |  |  |  |
